The test concerns the target T1, human CB2R (Homo sapiens, UniProt P34972).
T1 construct: host or cells: CHO cells
Nature of the test: CB2R mediated modulation of cAMP synthesis. The format is cell-based. The note with it: for agonistic activity: found through the use of the above described assays. As to the method: B. CB2R Mediated Modulation of cAMP Synthesis:
CHO cells expressing human CB2R (Euroscreen) were plated at a density of 5000 cells per well in 384 well plates and incubated overnight at 37° C. After removing the media, the cells were treated with test compounds diluted in stimulation buffer containing 1 mM IBMX, 0.25% BSA and 10 uM Forskolin. The assay was incubated for 30 minutes at 37° C. Cells were lysed and the cAMP concentration was measured using DiscoverX-XS cAMP kit, following the manufacturer's protocol. In this setting, agonists will decrease forskolin induced production of cAMP while inverse agonists will further increase forskolin induced production of cAMP. EC50 of agonists were calculated as follows. The maximal amount of cAMP produced by forskolin compared to the level of cAMP inhibited by 1 uM CP55940 is defined as 100%. The EC50 value of each test compound was determined as the concentration at which 50% of the forskolin-stimulated cAMP synthesis was inhibited. Data was analyzed using a four-parameter logistic model. (Model 205 of XLfit 4.0).

The structures appear in SMILES notation.

One may read the EC50 as the concentration needed to bring the measured effect to its halfway point. The low end stands for greater potency, the high end for weaker potency.

T1 sequence (P34972 whole entry): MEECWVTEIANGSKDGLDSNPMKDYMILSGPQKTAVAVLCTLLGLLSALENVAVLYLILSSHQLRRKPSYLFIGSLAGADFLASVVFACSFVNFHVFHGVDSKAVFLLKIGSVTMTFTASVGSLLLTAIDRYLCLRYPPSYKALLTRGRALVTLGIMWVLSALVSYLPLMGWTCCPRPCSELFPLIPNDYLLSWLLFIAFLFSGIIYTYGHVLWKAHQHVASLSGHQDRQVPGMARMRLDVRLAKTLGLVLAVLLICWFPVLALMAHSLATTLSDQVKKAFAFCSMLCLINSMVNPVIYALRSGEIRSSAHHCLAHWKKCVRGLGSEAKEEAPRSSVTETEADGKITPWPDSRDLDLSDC

For the compound `CCCS(=O)(=O)C(C)(C)C(=O)Nc1nc(-c2ccccc2)c(CC)s1` [N-(5-Ethyl-4-phenyl-thiazol-2-yl)-2-methyl-2-(propane-1-sulfonyl)-propionamide], it took 10.8 nM to reach a half-maximal effect (EC50) and the agonistic activity result is reported as “agonistic activity”.
In the case of `CCCS(=O)(=O)C(C)(C)C(=O)Nc1nc(-c2ccccc2)c(C)s1` [2-Methyl-N-(5-methyl-4-phenyl-thiazol-2-yl)-2-(propane-1-sulfonyl)-propionamide], a half-maximal effect (EC50) was put at 52.2 nM and the agonistic activity entry was “agonistic activity”.
Consider `CCC(C)S(=O)(=O)C(C)(C)C(=O)Nc1cc(C(C)(C)C)nn1C` (centres unmarked) [2-(Butane-2-sulfonyl)-N-(5-tert-butyl-2-methyl-2H-pyrazol-3-yl)-2-methyl-propionamide], for which the agonistic activity result is listed as “agonistic activity”.
With `Cn1nc(C(C)(C)C)cc1NC(=O)C(C)(C)S(=O)(=O)C(C)(C)C` [N-(5-tert-Butyl-2-methyl-2H-pyrazol-3-yl)-2-methyl-2-(2-methyl-propane-2-sulfonyl)-propionamide], the agonistic activity entry is listed as “agonistic activity”.
Regarding `CCCS(=O)(=O)C(C)(C)C(=O)Nc1cccc(C(C)(C)C)c1` [N-(3-tert-Butyl-phenyl)-2-methyl-2-(propane-1-sulfonyl)-propionamide], the agonistic activity result is “agonistic activity”.
On to `CC(C)(C)c1csc(NC(=O)C(C)(C)S(=O)(=O)CC2CCOCC2)n1` [N-(4-tert-Butyl-thiazol-2-yl)-2-methyl-2-(tetrahydro-pyran-4-ylmethanesulfonyl)-propionamide], for which the agonistic activity result was “agonistic activity”.
As to `CC(C)S(=O)(=O)C(C)(C)C(=O)Nc1cc2ccccc2cn1` [N-Isoquinolin-3-yl-2-methyl-2-(propane-2-sulfonyl)-propionamide], the agonistic activity entry is “agonistic activity”.
`CCCS(=O)(=O)C(C)(C)C(=O)Nc1ccc(-c2ccccc2)cn1` [2-Methyl-N-(5-phenyl-pyridin-2-yl)-2-(propane-1-sulfonyl)-propionamide]: the agonistic activity result is given as “agonistic activity”.
Same read-out and setting: as for `CCS(=O)(=O)C(C)(C)C(=O)Nc1cc(C(C)(C)C)nn1C` [N-(5-tert-Butyl-2-methyl-2H-pyrazol-3-yl)-2-ethanesulfonyl-2-methyl-propionamide], the entry is “agonistic activity”.
For `CC(C)(C)c1cc(NC(=O)C(C)(C)S(=O)(=O)C(C)(C)C)no1` [N-(5-tert-Butyl-isoxazol-3-yl)-2-methyl-2-(2-methyl-propane-2-sulfonyl)-propionamide], the agonistic activity entry is listed as “agonistic activity”.
As to `CC(C)CCS(=O)(=O)C(C)(C)C(=O)Nc1cc(C(C)(C)C)nn1C` [N-(5-tert-Butyl-2-methyl-2H-pyrazol-3-yl)-2-methyl-2-(3-methyl-butane-1-sulfonyl)-propionamide], the response was half-maximal at 15.4 nM (EC50) and the agonistic activity entry is recorded as “agonistic activity”.
As to `CC(C)(C)c1cc(NC(=O)C(C)(C)S(=O)(=O)CC2CCOCC2)on1` [N-(3-tert-Butyl-isoxazol-5-yl)-2-methyl-2-(tetrahydro-pyran-4-ylmethanesulfonyl)-propionamide], a half-maximal effect (EC50) was put at 4 nM and the agonistic activity entry is “agonistic activity”.
Take `CC(C)S(=O)(=O)C(C)(C)C(=O)Nc1ccc2ccccc2n1` [2-Methyl-2-(propane-2-sulfonyl)-N-quinolin-2-yl-propionamide]: the agonistic activity result is listed as “agonistic activity”.
Turning to `CC(C)(C(=O)Nc1nnc(-c2ccccc2)[nH]1)S(=O)(=O)CC1CCOCC1` [2-Methyl-N-(5-phenyl-4H-1,2,4-triazol-3-yl)-2-(tetrahydro-pyran-4-ylmethanesulfonyl)-propionamide], the EC50 came out at 1.7 nM and the agonistic activity entry is reported as “agonistic activity”.
Take `CC(C)(C(=O)Nc1nc(-c2ccccn2)cs1)S(=O)(=O)CC1CCOCC1` [2-Methyl-N-(4-pyridin-2-yl-thiazol-2-yl)-2-(tetrahydro-pyran-4-ylmethanesulfonyl)-propionamide]: the agonistic activity entry is on record as “agonistic activity”.
As to `CC(C)(C)c1cc(NC(=O)C(C)(C)S(=O)(=O)CC2CC2)on1` [N-(3-tert-Butyl-isoxazol-5-yl)-2-cyclopropylmethanesulfonyl-2-methyl-propionamide], the EC50 stood at 12.5 nM and the agonistic activity entry is reported as “agonistic activity”.
With `CCCS(=O)(=O)C(C)(C)C(=O)Nc1nc2ccccc2s1` [N-Benzothiazol-2-yl-2-methyl-2-(propane-1-sulfonyl)-propionamide], the agonistic activity entry was “agonistic activity”.
Take `CC(C)(C(=O)Nc1ccc(C(F)(F)F)cn1)S(=O)(=O)CC1CCCCC1` [2-Cyclohexylmethanesulfonyl-2-methyl-N-(5-trifluoromethyl-pyridin-2-yl)-propionamide]: it took 15.4 nM to reach a half-maximal effect (EC50) and the agonistic activity result is “agonistic activity”.
On to `CC(C)(C)c1cc(NC(=O)C(C)(C)S(=O)(=O)CCCc2ccccc2)no1` [N-(5-tert-Butyl-isoxazol-3-yl)-2-methyl-2-(3-phenyl-propane-1-sulfonyl)-propionamide], for which the agonistic activity result is reported as “agonistic activity”.
For `Cn1nc(-c2ccccc2)cc1NC(=O)C(C)(C)S(=O)(=O)CC1CCOCC1` [2-Methyl-N-(2-methyl-5-phenyl-2H-pyrazol-3-yl)-2-(tetrahydro-pyran-4-ylmethanesulfonyl)-propionamide], the agonistic activity result is given as “agonistic activity”.
Consider `CC(C)(C(=O)Nc1nsc(-c2ccccc2)n1)S(=O)(=O)CC1CCOCC1` [2-Methyl-N-(5-phenyl-[1,2,4]thiadiazol-3-yl)-2-(tetrahydro-pyran-4-ylmethanesulfonyl)-propionamide], for which the EC50 stood at 17.6 nM and the agonistic activity result is on record as “agonistic activity”.
As to `Cc1nc(NC(=O)C(C)(C)S(=O)(=O)CC2CCOCC2)sc1C(C)(C)C` [N-(5-tert-Butyl-4-methyl-thiazol-2-yl)-2-methyl-2-(tetrahydro-pyran-4-ylmethanesulfonyl)-propionamide], the response was half-maximal at 0.2 nM (EC50) and the agonistic activity entry is recorded as “agonistic activity”.
Turning to `CC(C)(C)c1ccc(NC(=O)C(C)(C)S(=O)(=O)CC2CCOCC2)cc1` [N-(4-tert-Butyl-phenyl)-2-methyl-2-(tetrahydro-pyran-4-ylmethanesulfonyl)-propionamide], a half-maximal effect (EC50) was put at 3.3 nM and the agonistic activity entry is on record as “agonistic activity”.
`CC(C)(C)C(=O)CS(=O)(=O)C(C)(C)C(=O)Nc1ccc(C(F)(F)F)cn1` [2-(3,3-Dimethyl-2-oxo-butane-1-sulfonyl)-2-methyl-N-(5-trifluoromethyl-pyridin-2-yl)-propionamide]: the concentration giving a half-maximal response (EC50) was 41.5 nM and the agonistic activity result is recorded as “agonistic activity”.
For `CC(C)(C)c1cc(NC(=O)C(C)(C)S(=O)(=O)CC(F)(F)F)no1` [N-(5-tert-Butyl-isoxazol-3-yl)-2-methyl-2-(2,2,2-trifluoro-ethanesulfonyl)-propionamide], the agonistic activity entry is listed as “agonistic activity”.
For `CC(C)(C(=O)Nc1ccc(C(F)(F)F)cn1)S(=O)(=O)C1CCOCC1` [2-Methyl-2-(tetrahydro-pyran-4-sulfonyl)-N-(5-trifluoromethyl-pyridin-2-yl)-propionamide], the half-maximal effective concentration (EC50) amounted to 62.4 nM and the agonistic activity entry was “agonistic activity”.

The values are drawn from patent US8829034B2, “Compounds which modulate the CB2 receptor” (Boehringer Ingerlheim International GmbH, priority 2006, dated 2014).
